Reference: publication PMC4450297, “Screening Active Compounds from Garcinia Species Native to China Reveals Novel Compounds Targeting the STAT/JAK Signaling Pathway” (BioMed Research International, 2015)

Assays:
Assay in all cases: Cell panel screen (CellTiter-Glo)
Format in all cases: cell-based, human
[1] = test system: NCI-H1694; details: NCI-H1694 (Lung), 20 micromolar, 72 hrs
Summary of the method: (§1)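 Tested once at 20 μM (final) over 72 h in cells cultured with 10% FBS. Luciferase/ATP luminescence read-out, background-corrected and normalised to vehicle controls.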

[2] = test system: SW13; details: SW13 (Adrenal gland), 20 micromolar, 72 hrs
Summary of the method: as §1

[3] = test system: T98G; details: T98G (Brain), 20 micromolar, 72 hrs
Summary of the method: as §1

[4] = test system: Bel-7402; details: Bel-7402 (Liver), 20 micromolar, 72 hrs
Summary of the method: as §1

[5] = test system: C3A; details: C3A (Liver), 20 micromolar, 72 hrs
Summary of the method: as §1

[6] = test system: HT-1197; details: HT-1197 (Urinary bladder), 20 micromolar, 72 hrs
Summary of the method: as §1

[7] = test system: Colo 205; details: Colo 205, 20 micromolar, 72 hrs
Summary of the method: as §1

[8] = test system: HCC1395; details: HCC1395 (Breast), 20 micromolar, 72 hrs
Summary of the method: as §1

[9] = test system: A704; details: A704 (Kidney), 20 micromolar, 72 hrs
Summary of the method: as §1

[10] = test system: HGC-27; details: HGC-27 (Stomach), 20 micromolar, 72 hrs
Summary of the method: as §1

[11] = test system: HCC1599; details: HCC1599 (Breast), 20 micromolar, 72 hrs
Summary of the method: as §1

[12] = test system: Panc 03.27; details: Panc 03.27 (Pancreas), 20 micromolar, 72 hrs
Summary of the method: as §1

[13] = test system: TCCSUP; details: TCCSUP (Urinary bladder), 20 micromolar, 72 hrs
Summary of the method: as §1

[14] = test system: RL95; details: RL95 (Uterus), 20 micromolar, 72 hrs
Summary of the method: as §1

[15] = test system: NCI-H2405; details: NCI-H2405 (Lung), 20 micromolar, 72 hrs
Summary of the method: as §1

[16] = test system: NCI-H1623; details: NCI-H1623 (Lung), 20 micromolar, 72 hrs
Summary of the method: as §1

[17] = test system: BT-549; details: BT-549 (Breast), 20 micromolar, 72 hrs
Summary of the method: as §1

[18] = test system: HCC1569; details: HCC1569 (Breast), 20 micromolar, 72 hrs
Summary of the method: as §1

[19] = test system: ChaGo-K-1; details: ChaGo-K-1 (Lung), 20 micromolar, 72 hrs
Summary of the method: as §1

[20] = test system: HCC1937; details: HCC1937 (Breast), 20 micromolar, 72 hrs
Summary of the method: as §1

[21] = test system: HPAF-II; details: HPAF-II (Pancreas), 20 micromolar, 72 hrs
Summary of the method: as §1

[22] = test system: BT-474; details: BT-474 (Breast), 20 micromolar, 72 hrs
Summary of the method: as §1

[23] = test system: HEC-1-A; details: HEC-1-A (Uterus), 20 micromolar, 72 hrs
Summary of the method: as §1

[24] = test system: CW-2; details: CW-2 (Colon), 20 micromolar, 72 hrs
Summary of the method: as §1

[25] = test system: NCI-H28; details: NCI-H28 (Lung), 20 micromolar, 72 hrs
Summary of the method: as §1

[26] = test system: ZR-75-30; details: ZR-75-30 (Breast), 20 micromolar, 72 hrs
Summary of the method: as §1

[27] = test system: CCF-STTG1; details: CCF-STTG1 (Brain), 20 micromolar, 72 hrs
Summary of the method: as §1

[28] = test system: MSTO-211-H; details: MSTO-211-H (Lung), 20 micromolar, 72 hrs
Summary of the method: as §1

[29] = test system: NCI-H524; details: NCI-H524 (Lung), 20 micromolar, 72 hrs
Summary of the method: as §1

[30] = test system: C8166; details: C8166 (Leukemia), 20 micromolar, 72 hrs
Summary of the method: as §1

[31] = test system: NCI-H1770; details: NCI-H1770 (Lung), 20 micromolar, 72 hrs
Summary of the method: as §1

[32] = test system: M059J; details: M059J (Brain), 20 micromolar, 72 hrs
Summary of the method: as §1

[33] = test system: NCI-H2347; details: NCI-H2347 (Lung), 20 micromolar, 72 hrs
Summary of the method: as §1

[34] = test system: A498; details: A498 (listed under Lung), 20 micromolar, 72 hrs
Summary of the method: as §1

[35] = test system: J82; details: J82 (Urinary bladder), 20 micromolar, 72 hrs
Summary of the method: as §1

[36] = test system: T47D; details: T47D (Breast), 20 micromolar, 72 hrs
Summary of the method: as §1

In the case of `O=c1c2cc(O)c(O)cc2oc2cc(O)cc(O)c12` [Ge-17], the “Percent Inhibition” value [1] is reported as 99%, the “Percent Inhibition” value [2] is reported as 8% and the “Percent Inhibition” value [3] is reported as 54%. The “Percent Inhibition” value [4] was 7%, the “Percent Inhibition” value [5] was 33% and the “Percent Inhibition” value [6] was 16%. For the same compound, the “Percent Inhibition” value [7] was 3%, the “Percent Inhibition” value [8] was 38% and the “Percent Inhibition” value [9] was 1%. The “Percent Inhibition” value [10] was 55%, the “Percent Inhibition” value [11] was 79% and the “Percent Inhibition” value [12] was 20%. The “Percent Inhibition” value [13] was 61%, the “Percent Inhibition” value [14] was 53% and the “Percent Inhibition” value [15] was -5%. The “Percent Inhibition” value [16] was 2%, the “Percent Inhibition” value [17] was 40% and the “Percent Inhibition” value [18] was 16%. For the same compound, the “Percent Inhibition” value [19] was 22%, the “Percent Inhibition” value [20] was 65% and the “Percent Inhibition” value [21] was 13%. For the same compound, the “Percent Inhibition” value [22] was -7%, the “Percent Inhibition” value [23] was 51% and the “Percent Inhibition” value [24] was 25%. For the same compound, the “Percent Inhibition” value [25] was 9%, the “Percent Inhibition” value [26] was 6% and the “Percent Inhibition” value [27] was 15%. For the same compound, the “Percent Inhibition” value [28] was 74%, the “Percent Inhibition” value [29] was 47% and the “Percent Inhibition” value [30] was 62%. For the same compound, the “Percent Inhibition” value [31] was 72%, the “Percent Inhibition” value [32] was 63% and the “Percent Inhibition” value [33] was 4%. The “Percent Inhibition” value [34] was 41%, the “Percent Inhibition” value [35] was 47% and the “Percent Inhibition” value [36] was 48%.

For `CC1(C)C=Cc2cc3c(=O)c4c(O)cc(O)cc4oc3c(O)c2O1` [Go-11], the “Percent Inhibition” value [1] was 73%, the “Percent Inhibition” value [2] was 24% and the “Percent Inhibition” value [3] was 68%. For the same compound, the “Percent Inhibition” value [4] was 16%, the “Percent Inhibition” value [5] was 19% and the “Percent Inhibition” value [6] was 39%. For the same compound, the “Percent Inhibition” value [7] was 11%, the “Percent Inhibition” value [8] was 68% and the “Percent Inhibition” value [9] was 24%. For the same compound, the “Percent Inhibition” value [10] was 54%, the “Percent Inhibition” value [11] was 49% and the “Percent Inhibition” value [12] was 39%. The “Percent Inhibition” value [13] was 43%, the “Percent Inhibition” value [14] was 72% and the “Percent Inhibition” value [15] was 3%. The “Percent Inhibition” value [16] was -10%, the “Percent Inhibition” value [17] was 46% and the “Percent Inhibition” value [18] was 41%. For the same compound, the “Percent Inhibition” value [19] was 75%, the “Percent Inhibition” value [20] was 21% and the “Percent Inhibition” value [21] was 18%. For the same compound, the “Percent Inhibition” value [22] was 31%, the “Percent Inhibition” value [23] was 38% and the “Percent Inhibition” value [24] was 61%. The “Percent Inhibition” value [25] was 33%, the “Percent Inhibition” value [26] was 62% and the “Percent Inhibition” value [27] was 44%. The “Percent Inhibition” value [28] was 66%, the “Percent Inhibition” value [29] was 83% and the “Percent Inhibition” value [30] was 71%. The “Percent Inhibition” value [31] was 38%, the “Percent Inhibition” value [32] was 78% and the “Percent Inhibition” value [33] was 10%. For the same compound, the “Percent Inhibition” value [34] was 37%, the “Percent Inhibition” value [35] was 52% and the “Percent Inhibition” value [36] was 35%.

`COc1ccc2c(=O)c3c(O)cc(O)cc3oc2c1OC` [Go-14] was tested, and the “Percent Inhibition” value [1] was -3%, the “Percent Inhibition” value [2] was -12% and the “Percent Inhibition” value [3] was 8%. The “Percent Inhibition” value [4] was -8%, the “Percent Inhibition” value [5] was -7% and the “Percent Inhibition” value [6] was -3%. For the same compound, the “Percent Inhibition” value [7] was 8%, the “Percent Inhibition” value [8] was -8% and the “Percent Inhibition” value [9] was -13%. For the same compound, the “Percent Inhibition” value [10] was -2%, the “Percent Inhibition” value [11] was 0% and the “Percent Inhibition” value [12] was 4%. The “Percent Inhibition” value [13] was 6%, the “Percent Inhibition” value [14] was -5% and the “Percent Inhibition” value [15] was -10%. For the same compound, the “Percent Inhibition” value [16] was -10%, the “Percent Inhibition” value [17] was -16% and the “Percent Inhibition” value [18] was 2%. The “Percent Inhibition” value [19] was -16%, the “Percent Inhibition” value [20] was 3% and the “Percent Inhibition” value [21] was 0%. For the same compound, the “Percent Inhibition” value [22] was -23%, the “Percent Inhibition” value [23] was -6% and the “Percent Inhibition” value [24] was 5%. The “Percent Inhibition” value [25] was -3%, the “Percent Inhibition” value [26] was -20% and the “Percent Inhibition” value [27] was -1%. The “Percent Inhibition” value [28] was 11%, the “Percent Inhibition” value [29] was -5% and the “Percent Inhibition” value [30] was 2%. For the same compound, the “Percent Inhibition” value [31] was -4%, the “Percent Inhibition” value [32] was 0% and the “Percent Inhibition” value [33] was -2%. The “Percent Inhibition” value [34] was -2%, the “Percent Inhibition” value [35] was -8% and the “Percent Inhibition” value [36] was -3%.
